According to patent publication US9952217B2, “Anti-HBc quantitative detection method and uses thereof in monitoring and controlling disease progression of chronic hepatitis B patient and in predicting therapeutic effect” (priority 2012, dated 2018):

Tested on: hepatitis B virus
Experiment: Adefovir dipivoxil therapy of HBeAg positive chronic hepatitis B patients (Cohort A)
Assay type: in vivo, human
Method: Patient cohort A: 49 HBeAg positive patients, all patients accepted therapy of adefovir dipivoxil (10 mg/day), for 96 weeks in total, and were follow-up visited for 12 weeks after stop of therapy.
The above patients before therapy all met the criteria of disease adaptable for therapy as recommended by the Guide of Clinical Management of Chronic Hepatitis B of APASL: HBsAg was positive for consecutive 1 year or more, HBeAg was positive and anti-HBe was negative, serum ALT level was higher than 2 times of ULN; the patients were chosen to exclude possibility of having accompanied infection of hepatitis C virus (HCV), human immunodeficiency virus (HIV), hepatitis D virus (HDV), hepatitis E virus (HEV), and have no clinical medicine evidence of having accompanied autoimmune or metabolic liver diseases.
It was performed according to the method described in section 4.2 of Example 4.
It was performed according to the method described in section 4.3 of Example 4.
Main therapeutic end was defined when HBeAg seroconversion occurred at follow-up visit end.
All statistic methods were performed according to those described in Example 4.

For CC(C)(C)C(=O)OCOP(=O)(COCCn1cnc2c(N)ncnc21)OCOC(=O)C(C)(C)C [adefovir dipivoxil], the “average increase (bounce) of serum anti-HBc level after therapy” value (108 weeks versus therapy end (96 weeks)) was 0.29 log10 IU/ml, the “decrease of average HBV DNA level at follow-up end versus before therapy” value (HBc-High group (baseline anti-HBc ≥29000 IU/ml, n=16)) was 3.48±2.24 log10 copies/mL and the “decrease of average HBV DNA level at follow-up end versus before therapy” value (HBc-Low group (baseline anti-HBc <29000 IU/ml, n=33)) was 1.69±2.05 log10 copies/mL. The “therapeutic effective rate (HBeAg seroconversion at follow-up visit end)” value (all 49 patients, 10 mg/day for 96 weeks, follow-up 12 weeks after stop) was 18.4%, the “response rate (HBeAg seroconversion after therapy)” value (baseline anti-HBc 9000-29000 IU/ml (n=19)) was 10.5% and the “patients with HBeAg seroconversion after therapy” value (baseline anti-HBc <9000 IU/ml (16 patients as printed)) was “none”. For the same compound, the “response rate (HBeAg seroconversion after therapy)” value (baseline anti-HBc ≥29000 IU/ml, three-group analysis) was 43.8%, the “decline of average serum anti-HBc level per 12 weeks” value (baseline to 60 weeks after beginning of therapy) was 0.20±0.05 log10 IU/mL and the “ratio of occurrence rates (Risk Ratio, RR) of HBeAg seroconversion between high and low anti-HBc groups” value (cutoff 29000 IU/ml baseline anti-HBc) was 7.22. For the same compound, the “effective rate (HBeAg seroconversion at follow-up visit end)” value (patients with baseline anti-HBc greater than 29000 IU/ml (n=16)) was 43.8% and the “effective rate (HBeAg seroconversion at follow-up visit end)” value (patients with baseline anti-HBc less than 29000 IU/ml (n=33)) was 6.1%.
